Laboratory results published in PMC6447718, “PACAP-38 and PACAP(6–38) Degranulate Rat Meningeal Mast Cells via the Orphan MrgB3-Receptor” (Frontiers in Cellular Neuroscience, 2019).
Entries after “also recorded” stand apart in the source; their conditions may differ. Ends that are not written are not given here.

How the values were obtained:
rat meningeal mast cells = experiment: Mast cell degranulation in hemi-skull preparations (dura mater, toluidine blue staining, microscopic count); assay type: cell-based, rat (male Sprague-Dawley)
Protocol: Mast cell degranulation was performed as previously described (Pedersen et al., [2015]). In brief, skulls were cut mid-sagittal and the brain halves were removed, leaving the dura mater undisturbed. This was followed by immediate addition of either 350 μl 0.1, 1 or 10 μM PACAP-38 (custom synthesis by Caslo Laboratory ApS, Lyngby, Denmark) or vehicle (saline) in phosphate buffered saline (PBS). After 30 s incubation, the reactions were terminated, and the skulls were fixated in 4% paraformaldehyde in phosphate buffered saline (PBS; Glostrup Hospital Pharmacy, Denmark). The dura mater was dissected from the skull, whole mounted on slides, and mast cells were visualized by staining with 0.1% acidified toluidine blue (Sigma Aldrich, Germany). Tissues were dehydrated in graded alcohols prior to cover slip mounting. The level of mast cell degranulation was evaluated by 400× magnification (Nikon Eclipse Ni microscope) by a researcher blinded to the treatment and was counted in 10 consecutive fields along the stem part of the middle meningeal artery. Mast cells were considered degranulated if an extensive dispersion of more than 10 extruded granules were localized outside the cell or if an extensive loss of staining gave the cell a “ghostly” look.
(§1) Concentration-response curves for both oocytes and dural mast cells were analyzed for overall effects of PACAP-38 and -27 by two-way analyses of variance (ANOVA) followed by Sidak’s test for multiple pairwise comparisons. Effects of PAC1-receptor ligands on mast cell degranulation or on receptor-expressing oocytes were analyzed with a one-way ANOVA followed by Tukey’s multiple comparisons test. The effect of PACAP-38 and PACAP(6–38) on MrgB3-expressing oocytes were analyzed by an unpaired two-tailed t-test. Differences between groups were considered significant when p < 0.05 and data are presented as mean with standard error of the mean (±SEM). GraphPad Prism 7 (GraphPad Prism Software, San Diego, CA, USA) was used for statistical analysis.

[1] = system: PAC1-receptor (Rattus Norvegicus Adcyap1r1 variant 5, null-splice variant); assay type: cell-based
From the text: (§2) DNA of the coding region of Rattus Norvegicus Adcyap1r1 variant 5 (NM_001270582.1) encoding the null-splice variant (short N-terminal and neither exon 14 or 15) of the PAC1-receptor (Vector: EX-Rn10199-M03) was ordered from GeneCopoeia. DNA encoding the RGD1560730 gene (XM_006229262.3, GenScript), was cloned into the pXOOM vector as previously described (Jespersen et al., [2002]). DNA was purified using Plasmid DNA Purification NucleoBond Xtra Midi-kit (Macherey-Nagel). […] Extracted plasmids were linearized down-stream the poly(A) segment using the XhoI restriction enzyme (New England Biolabs, Ipswich, MA, USA). RNA was in vitro transcribed by synthetization from the T7 RNA polymerase promoter using the mMessenger mMachine kit (Ambion) according to manufacturer’s protocol. Messenger RNA was purified using the MEGAclear kit (Ambion). Transcribed RNA integrity was assessed by agarose gel electrophoresis.
(§3) Stage V and VI defolliculated Xenopus laevis oocytes were purchased from EcoCyte Bioscience (Dortmund, Germany) and kept in Kulori medium (90 mM NaCl, 4 mM KCl, 1 mM MgCl2, 1 mM CaCl2, and 5 mM Hepes, pH 7.4). Oocytes were micro-injected with 50 nl mRNA solution containing 30 ng RNA per oocyte and incubated at 19°C. Currents were measured after 2–5 days using a conventional two-electrode-voltage clamp (TEVC). The oocytes were placed in a 200 μl chamber and continuously exposed to a flow of Kulori medium with or without ligands (1 ml/min) while impaled with both a current and a voltage electrode filled with 3 M KCl and connected to an Oocyte Clamp Amplifier [Warner Instruments Corp. (OC-725 B) and a PC-interface (Digidata1440A, Molecular Devices)]. Current amplitude in absence or presence of ligands were analyzed using pClamp 10.2 software (Molecular Devices). All experiments were performed with oocyte membrane voltages constantly clamped to −70 mV and the temperature was kept between 19 and 22°C. In activation experiments, non-responding as well as low-responding (<10 nA) oocytes were excluded from the dataset. Ligands PACAP-38, PACAP-27, PACAP(6–38) were custom synthetized by Caslo (Lyngby, Denmark) while maxadilan was purchased from Bachem (Bubendorf, Switzerland).
as §1

[2] = system: MrgB3-receptor (RGD1560730); experiment: Two-electrode voltage clamp on MrgB3-receptor-expressing Xenopus laevis oocytes; assay type: cell-based, rat; conditions: 1–10 μM, holding potential −70 mV
From the text: as §2, §3, §1

[3] = system: PAC1-receptor (Rattus Norvegicus Adcyap1r1 variant 5, null-splice variant); experiment: Antagonism of PACAP-38-induced currents in PAC1-receptor-expressing oocytes (TEVC); assay type: cell-based
From the text: as §2, with “RNA was in vitro transcribed by synthetization from the T7 RNA polymerase promoter using the mMessenger mMachine kit (Ambion) according to manufacturer’s protocol. Messenger RNA was purified using the MEGAclear kit (Ambion).” left out
Stage V and VI defolliculated Xenopus laevis oocytes were purchased from EcoCyte Bioscience (Dortmund, Germany) and kept in Kulori medium (90 mM NaCl, 4 mM KCl, 1 mM MgCl2, 1 mM CaCl2, and 5 mM Hepes, pH 7.4). […] Currents were measured after 2–5 days using a conventional two-electrode-voltage clamp (TEVC). […] Current amplitude in absence or presence of ligands were analyzed using pClamp 10.2 software (Molecular Devices). […]
Concentration-response curves for both oocytes and dural mast cells were analyzed for overall effects of PACAP-38 and -27 by two-way analyses of variance (ANOVA) followed by Sidak’s test for multiple pairwise comparisons. […]

[4] = system: rat peritoneal mast cells; conditions: rat peritoneal mast cells; ref Baun et al., 2012; cited from earlier work
From the text: Inspired by clinical findings, we have previously characterized the degranulating effect of various PACAP-analogues on isolated rat peritoneal mast cells. Based on the expectation that degranulation is mediated through the PAC1-receptor, we found an unpredicted order of potency (Baun et al., [2012]).

VPAC1 = conditions: ref Harmar et al., 2012; cited from earlier work
From the text: (§4) Pituitary adenylate cyclase-activating peptide-38 (PACAP-38) is a 38-amino acid neuropeptide located in both sensory and parasympathetic perivascular nerve fibers (Moller et al., [1993]; Mulder et al., [1994]). A C-terminal truncated 27-amino acid (PACAP-27) version is endogenously present as well but is less abundant (Miyata et al., [1990]; Arimura et al., [1991]; Ogi et al., [1993]).

VPAC2 = conditions: ref Harmar et al., 2012; cited from earlier work
From the text: as §4

MrgB3-receptor = conditions: ref Tatemoto et al., 2006; cited from earlier work
From the text: The exact mechanism of basic secretagogue-mediated mast cell degranulation remains unclear. […] However, this would require the ability of peptides, despite their positive charge, to diffuse across the membrane in order to reach intracellular G-proteins, and as this has not been shown, the hypothesis seems unlikely (Tat ...

Substance	mast cell degranulation (rat meningeal mast cells; 10 μM, Figure 6A, PACAP(6–38) n = 7 (p < 0.0001), PACAP-38 n = 5, mean ± SEM)	mast cell degranulation (result in words) (rat meningeal mast cells; 0.1 to 10 μM, 30 s, rat meningeal mast cells)	current ([1]; 0.1 μM alone, 1 min perfusion, −70 mV, Figure 6B, n = 9, mean ± SEM)	activation of PAC1-receptor / relative potency (result in words) ([1]; 0.01 to 1 μM, holding potential −70 mV)	activation of MrgB3-receptor (result in words) [2]	inhibition of PACAP-38 induced responses (result in words) ([3]; PACAP(6–38) 0.1 μM together with PACAP-38, one-way ANOVA, Tukey's test)	PACAP-38-induced current in presence of antagonist ([3]; PACAP(6–38) administered together with PACAP-38 in 0.1 μM, −70 mV, n = 10, mean ± SEM, PACAP-38 alone −0.18 ± 0.5 μA)	peritoneal mast cell degranulation (result in words) [4]	affinity to VPAC1-receptor (result in words) (VPAC1)	affinity to VPAC2-receptor (result in words) (VPAC2)	affinity to MrgB3-receptor (result in words) (MrgB3-receptor)
Pituitary Adenylate Cyclase Activating Peptide(6–38) (FTDSYSRYRKQMAVKKYLAAVLGKRYKQRVKNK; ends and bridges not checked; UniProt P18509 137-169, looked up, fragment) [PACAP(6–38), PAC1-receptor antagonist, custom synthetized by Caslo]	93 ± 2%	as potent as PACAP-38; also recorded: potent degranulator of rat meningeal mast cells	−5 ± 6 nA	unable to induce currents	agonistic effect on MrgB3-receptors expressed in oocytes; also recorded: equipotent to PACAP-38; also recorded: induce a significant current in MrgB3-receptor-expressing oocytes	significantly antagonized; also recorded: significant inhibition of PACAP-38 induced responses	−0.05 ± 0.02 μA	pronounced mast cell degranulation; also recorded: as potent as PACAP-38	has not been shown to have an affinity	has not been shown to have an affinity	
[D-Trp^7,9,10]-substance P											affinity
